Source: patent US20080051387A1, “TETRAHYDROPYRIDO[3,4-D]PYRIMIDINES AND RELATED ANALOGUES” (priority 2006, published 2008)

molecular target: T1, chimeric human H3 receptor (Homo sapiens, UniProt Q9Y5N1); test: Chimeric human H3 receptor screening GTP binding assay (inhibition of histamine-stimulated GTP-gamma35S binding, Example 8); assay type: biochemical; conditions: 1 h; assay of Example 8; symbol "!" in column headed Ki; read-out: percent inhibition of agonist-induced GTP-gammaS binding to H3
T1 construct: rat Galpha-i2 (Gnai2, rat); made in house; host or cells: Sf9 insect cells (baculovirus); P2 membranes
How it was run: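 Compound tested at 4 μM against 1 μM histamine stimulation; 125 pM GTP-gamma35S binding measured by filtration and scintillation after 60 min at room temperature. Membranes from Sf9 cells expressing chimeric human H3 plus G-protein subunits, in Tris pH 7.4/NaCl/MgCl2/GDP buffer; values are % inhibition after nonspecific subtraction.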

T1 sequence (Q9Y5N1 with tags, fused parts or gaps): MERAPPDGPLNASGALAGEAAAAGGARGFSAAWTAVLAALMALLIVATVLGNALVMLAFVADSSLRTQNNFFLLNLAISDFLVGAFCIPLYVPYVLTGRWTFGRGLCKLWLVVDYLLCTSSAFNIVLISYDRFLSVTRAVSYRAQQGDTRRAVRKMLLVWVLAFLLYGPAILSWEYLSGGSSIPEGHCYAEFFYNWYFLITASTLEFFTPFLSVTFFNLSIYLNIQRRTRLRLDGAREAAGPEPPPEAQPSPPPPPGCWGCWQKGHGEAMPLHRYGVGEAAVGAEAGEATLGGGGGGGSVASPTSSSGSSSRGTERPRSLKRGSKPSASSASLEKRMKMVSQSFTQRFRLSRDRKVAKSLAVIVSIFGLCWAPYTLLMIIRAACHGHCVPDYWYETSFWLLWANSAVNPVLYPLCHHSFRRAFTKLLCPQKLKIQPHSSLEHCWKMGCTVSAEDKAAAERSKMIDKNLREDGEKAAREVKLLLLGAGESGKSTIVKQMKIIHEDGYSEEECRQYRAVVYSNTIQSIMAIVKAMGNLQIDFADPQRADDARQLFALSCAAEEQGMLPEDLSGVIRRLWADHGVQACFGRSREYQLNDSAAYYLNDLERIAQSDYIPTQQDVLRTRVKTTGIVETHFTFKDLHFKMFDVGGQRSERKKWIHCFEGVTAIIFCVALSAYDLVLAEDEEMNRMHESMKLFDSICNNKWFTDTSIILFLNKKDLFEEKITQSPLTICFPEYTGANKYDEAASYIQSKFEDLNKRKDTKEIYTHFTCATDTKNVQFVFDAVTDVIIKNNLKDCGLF

Compound	inhibition at 4 µM [%]
CC(Oc1ccc(Cl)cc1Cl)C(=O)N1CCc2cnc(N3CCN(C4CCC4)CC3)nc2CC1 (stereo not shown) [Compound 338, 2-(4-cyclobutylpiperazin-1-yl)-7-[2-(2,4-dichlorophenoxy)propanoyl]-6,7,8,9-tetrahydro-5H-pyrimido[4,5-d]azepine]	≥ 90
CC(Oc1ccccc1)C(=O)N1CCc2cnc(N3CCN(C4CCC4)CC3)nc2CC1 (stereo not shown) [Compound 339, 2-(4-cyclobutylpiperazin-1-yl)-7-(2-phenoxypropanoyl)-6,7,8,9-tetrahydro-5H-pyrimido[4,5-d]azepine]	≥ 90
CC(Oc1cccc(Cl)c1)C(=O)N1CCc2cnc(N3CCN(C4CCC4)CC3)nc2CC1 (stereo not shown) [Compound 340, 7-[2-(3-chlorophenoxy)propanoyl]-2-(4-cyclobutylpiperazin-1-yl)-6,7,8,9-tetrahydro-5H-pyrimido[4,5-d]azepine]	≥ 90
O=C(C1COc2ccccc2O1)N1CCc2cnc(N3CCN(C4CCC4)CC3)nc2CC1 (stereo not shown) [Compound 341, 2-(4-cyclobutylpiperazin-1-yl)-7-(2,3-dihydro-1,4-benzodioxin-2-ylcarbonyl)-6,7,8,9-tetrahydro-5H-pyrimido[4,5-d]azepine]	≥ 90
CC(CC(=O)N1CCc2cnc(N3CCN(C4CCC4)CC3)nc2CC1)Sc1ccc(Cl)cc1 (stereo not shown) [Compound 342, 7-{3-[(4-chlorophenyl)thio]butanoyl}-2-(4-cyclobutylpiperazin-1-yl)-6,7,8,9-tetrahydro-5H-pyrimido[4,5-d]azepine]	≥ 90
CC(Oc1ccc(OC(F)(F)F)cc1)C(=O)N1CCc2cnc(N3CCN(C4CCC4)CC3)nc2CC1 (stereo not shown) [Compound 343, 2-(4-cyclobutylpiperazin-1-yl)-7-{2-[4-(trifluoromethoxy)phenoxy]propanoyl}-6,7,8,9-tetrahydro-5H-pyrimido[4,5-d]azepine]	≥ 90
CC(Oc1ccccc1Cl)C(=O)N1CCc2cnc(N3CCN(C4CCC4)CC3)nc2CC1 (stereo not shown) [Compound 344, 7-[2-(2-chlorophenoxy)propanoyl]-2-(4-cyclobutylpiperazin-1-yl)-6,7,8,9-tetrahydro-5H-pyrimido[4,5-d]azepine]	≥ 90
CC(Oc1ccc(Cl)cc1)C(=O)N1CCc2cnc(N3CCN(C4CCC4)CC3)nc2CC1 (stereo not shown) [Compound 345, 7-[2-(4-chlorophenoxy)propanoyl]-2-(4-cyclobutylpiperazin-1-yl)-6,7,8,9-tetrahydro-5H-pyrimido[4,5-d]azepine]	≥ 90
Cc1ccccc1OC(C)C(=O)N1CCc2cnc(N3CCN(C4CCC4)CC3)nc2CC1 (stereo not shown) [Compound 346, 2-(4-cyclobutylpiperazin-1-yl)-7-[2-(2-methylphenoxy)propanoyl]-6,7,8,9-tetrahydro-5H-pyrimido[4,5-d]azepine]	≥ 90
Cc1cccc(OC(C)C(=O)N2CCc3cnc(N4CCN(C5CCC5)CC4)nc3CC2)c1C (stereo not shown) [Compound 347, 2-(4-cyclobutylpiperazin-1-yl)-7-[2-(2,3-dimethylphenoxy)propanoyl]-6,7,8,9-tetrahydro-5H-pyrimido[4,5-d]azepine]	≥ 90
CCC(C(=O)N1CCc2cnc(N3CCN(C4CCC4)CC3)nc2CC1)c1ccccc1 (stereo not shown) [Compound 348, 2-(4-cyclobutylpiperazin-1-yl)-7-(2-phenylbutanoyl)-6,7,8,9-tetrahydro-5H-pyrimido[4,5-d]azepine]	≥ 90
CC(C)C(C(=O)N1CCc2cnc(N3CCN(C4CCC4)CC3)nc2CC1)c1ccccc1 (stereo not shown) [Compound 349, 2-(4-cyclobutylpiperazin-1-yl)-7-(3-methyl-2-phenylbutanoyl)-6,7,8,9-tetrahydro-5H-pyrimido[4,5-d]azepine]	≥ 90
CCC(CC)(C(=O)N1CCc2cnc(N3CCN(C4CCC4)CC3)nc2CC1)c1ccccc1 [Compound 350, 2-(4-cyclobutylpiperazin-1-yl)-7-(2-ethyl-2-phenylbutanoyl)-6,7,8,9-tetrahydro-5H-pyrimido[4,5-d]azepine]	≥ 90
Cc1ccccc1C(C(=O)N1CCc2cnc(N3CCN(C4CCC4)CC3)nc2CC1)C(C)C (stereo not shown) [Compound 351, 2-(4-cyclobutylpiperazin-1-yl)-7-[3-methyl-2-(2-methylphenyl)butanoyl]-6,7,8,9-tetrahydro-5H-pyrimido[4,5-d]azepine]	≥ 90
CCC(C(=O)N1CCc2cnc(N3CCN(C4CCC4)CC3)nc2CC1)c1ccc(OC)cc1 (stereo not shown) [Compound 352, 2-(4-cyclobutylpiperazin-1-yl)-7-[2-(4-methoxyphenyl)butanoyl]-6,7,8,9-tetrahydro-5H-pyrimido[4,5-d]azepine]	≥ 90
O=C(C(c1ccccc1)C1CCCC1)N1CCc2cnc(N3CCN(C4CCC4)CC3)nc2CC1 (stereo not shown) [Compound 353, 2-(4-cyclobutylpiperazin-1-yl)-7-[cyclopentyl(phenyl)acetyl]-6,7,8,9-tetrahydro-5H-pyrimido[4,5-d]azepine]	≥ 90
O=C(C(c1ccccc1)c1ccccc1)N1CCc2cnc(N3CCN(C4CCC4)CC3)nc2CC1 [Compound 354, 2-(4-cyclobutylpiperazin-1-yl)-7-(diphenylacetyl)-6,7,8,9-tetrahydro-5H-pyrimido[4,5-d]azepine]	≥ 90

Compound	inhibition at 4 µM [%]
O=C(C(c1ccccc1)C1CCCCC1)N1CCc2cnc(N3CCN(C4CCC4)CC3)nc2CC1 (stereo not shown) [Compound 355, 2-(4-cyclobutylpiperazin-1-yl)-7-[cyclohexyl(phenyl)acetyl]-6,7,8,9-tetrahydro-5H-pyrimido[4,5-d]azepine]	≥ 90
Cc1ccc(C(C(=O)N2CCc3cnc(N4CCN(C5CCC5)CC4)nc3CC2)c2ccccc2)cc1 (stereo not shown) [Compound 356, 2-(4-cyclobutylpiperazin-1-yl)-7-[(4-methylphenyl)(phenyl)acetyl]-6,7,8,9-tetrahydro-5H-pyrimido[4,5-d]azepine]	≥ 90
CC(C(=O)N1CCc2cnc(N3CCN(C4CCC4)CC3)nc2CC1)(c1ccccc1)c1ccccc1 [Compound 357, 2-(4-cyclobutylpiperazin-1-yl)-7-(2,2-diphenylpropanoyl)-6,7,8,9-tetrahydro-5H-pyrimido[4,5-d]azepine]	≥ 90
O=C(C1c2ccccc2Oc2ccccc21)N1CCc2cnc(N3CCN(C4CCC4)CC3)nc2CC1 [Compound 358, 2-(4-cyclobutylpiperazin-1-yl)-7-(9H-xanthen-9-ylcarbonyl)-6,7,8,9-tetrahydro-5H-pyrimido[4,5-d]azepine]	≥ 90
Cc1cc(C)cc(C(=O)N2CCc3cnc(N4CCN(C5CCC5)CC4)nc3CC2)c1 [Compound 359, 2-(4-cyclobutylpiperazin-1-yl)-7-(3,5-dimethylbenzoyl)-6,7,8,9-tetrahydro-5H-pyrimido[4,5-d]azepine]	≥ 90
Cc1ccc(C(=O)N2CCc3cnc(N4CCN(C5CCC5)CC4)nc3CC2)cc1C [Compound 360, 2-(4-cyclobutylpiperazin-1-yl)-7-(3,4-dimethylbenzoyl)-6,7,8,9-tetrahydro-5H-pyrimido[4,5-d]azepine]	≥ 90
O=C(c1ccc2ccccc2c1)N1CCc2cnc(N3CCN(C4CCC4)CC3)nc2CC1 [Compound 361, 2-(4-cyclobutylpiperazin-1-yl)-7-(2-naphthoyl)-6,7,8,9-tetrahydro-5H-pyrimido[4,5-d]azepine]	≥ 90
CCCc1ccc(C(=O)N2CCc3cnc(N4CCN(C5CCC5)CC4)nc3CC2)cc1 [Compound 362, 2-(4-cyclobutylpiperazin-1-yl)-7-(4-propylbenzoyl)-6,7,8,9-tetrahydro-5H-pyrimido[4,5-d]azepine]	≥ 90
CCCCc1ccc(C(=O)N2CCc3cnc(N4CCN(C5CCC5)CC4)nc3CC2)cc1 [Compound 363, 7-(4-butylbenzoyl)-2-(4-cyclobutylpiperazin-1-yl)-6,7,8,9-tetrahydro-5H-pyrimido[4,5-d]azepine]	≥ 90
CC(C)(C)c1ccc(C(=O)N2CCc3cnc(N4CCN(C5CCC5)CC4)nc3CC2)cc1 [Compound 364, 7-(4-tert-butylbenzoyl)-2-(4-cyclobutylpiperazin-1-yl)-6,7,8,9-tetrahydro-5H-pyrimido[4,5-d]azepine]	≥ 90
O=C(c1ccc(-c2ccccc2)cc1)N1CCc2cnc(N3CCN(C4CCC4)CC3)nc2CC1 [Compound 365]	≥ 90
O=C(c1ccc(OC(F)F)cc1)N1CCc2cnc(N3CCN(C4CCC4)CC3)nc2CC1 [Compound 366, 2-(4-cyclobutylpiperazin-1-yl)-7-[4-(difluoromethoxy)benzoyl]-6,7,8,9-tetrahydro-5H-pyrimido[4,5-d]azepine]	≥ 90
CCOc1cccc(C(=O)N2CCc3cnc(N4CCN(C5CCC5)CC4)nc3CC2)c1 [Compound 367, 2-(4-cyclobutylpiperazin-1-yl)-7-(3-ethoxybenzoyl)-6,7,8,9-tetrahydro-5H-pyrimido[4,5-d]azepine]	≥ 90
CCOc1ccc(C(=O)N2CCc3cnc(N4CCN(C5CCC5)CC4)nc3CC2)cc1 [Compound 368, 2-(4-cyclobutylpiperazin-1-yl)-7-(4-ethoxybenzoyl)-6,7,8,9-tetrahydro-5H-pyrimido[4,5-d]azepine]	≥ 90
CSc1ccc(C(=O)N2CCc3cnc(N4CCN(C5CCC5)CC4)nc3CC2)cc1 [Compound 369, 2-(4-cyclobutylpiperazin-1-yl)-7-[4-(methylthio)benzoyl]-6,7,8,9-tetrahydro-5H-pyrimido[4,5-d]azepine]	≥ 90
CCSc1ccc(C(=O)N2CCc3cnc(N4CCN(C5CCC5)CC4)nc3CC2)cc1 [Compound 370, 2-(4-cyclobutylpiperazin-1-yl)-7-[4-(ethylthio)benzoyl]-6,7,8,9-tetrahydro-5H-pyrimido[4,5-d]azepine]	≥ 90
COc1ccc(C(=O)N2CCc3cnc(N4CCN(C5CCC5)CC4)nc3CC2)cc1F [Compound 371, 2-(4-cyclobutylpiperazin-1-yl)-7-(3-fluoro-4-methoxybenzoyl)-6,7,8,9-tetrahydro-5H-pyrimido[4,5-d]azepine]	≥ 90
